These results are taken from patent US12533444B2, “Mitigation of peri-implantitis by design and stability of bifunctional peptides with antimicrobial properties” (priority 2019, dated 2026).

Experiment [1] has as its system oral pathogens. Conditions: against oral pathogens; cited from earlier work.
A short description of experiment [2]: Serum competition binding assay with BSA on titanium implant discs. Conditions: presence of 0.01% BSA, 2 minutes at 37° C. From the text: (§1) A custom MatLab script was developed to determine the percent surface coverage of fluorescently labeled bifunctional peptides on the implant disc surface. The color fluorescent images were read into MatLab using the imread function. The images were converted to black and white and the total number of black and white pixels quantitated. The number of white pixels corresponding to the fluorescently labeled peptides was divided by the total number of pixels to determine the percent surface coverage.
Prior to functionalization of sterile titanium implant discs, a solution of BSA and the bifunctional peptide was made in a sterile centrifuge tube. In a sterile 24 well plate, 100 μL of the BSA/bifunctional peptide solution was pipetted onto a titanium implant disc and incubated at 37° C. for 2 minutes. […]
The bifunctional peptide film could be applied to a new dental implant prior to implantation and subsequently during recall appointments for treatment to previously placed implants. […] Thus, the ability of the peptide film to functionalize the implant surface in the presence of serum proteins was determined by pre-mixing the peptide with varying concentrations of bovine serum albumin (BSA) followed by incubating the mixture on the titanium disc for 2 minutes at 37° C. […]

Experiment [3] in a line: Peptide binding to titanium implant discs (percent surface coverage by fluorescence imaging). Conditions: FITC-labeled peptide, up to 6× theoretical footprint concentration, two minutes at 37° C., washed. How it is done:
Titanium implant disc functionalization with bifunctional peptides was accomplished by incubating 100 μL of a specified fold concentration of the theoretical “footprint” concentration onto clean, sterile discs for different time periods at 37° C. for 2 minutes. Following incubation, the discs were transferred to a sterile well in a 24-well plate containing 500 μL of DI H2O and washed multiple times to remove unbound peptide. The discs were transferred to a clean glass microscope slide for imaging using a fluorescent microscope. All experiments were repeated a minimum of three times and images were recorded at 10× magnification.
A custom MatLab script was developed to determine the percent surface coverage of fluorescently labeled bifunctional peptides on the implant disc surface. The color fluorescent images were read into MatLab using the imread function. The images were converted to black and white and the total number of black and white pixels quantitated. […]
The theoretical footprint concentration of each bifunctional peptide with a multiple of the binding concentration up to 6× was determined to result in near 100% surface coverage after incubation with a titanium implant disc for only two minutes at 37° C. […] The fluorescent images were then analyzed using a MATLAB script to determine the percentage of the implant disc covered by the bifunctional peptides. […]

The test system of experiment [4] is S. mutans. Briefly: Propidium iodide staining of dead S. mutans bacteria on functionalized implant discs. It counts as cell-based, Streptococcus mutans. Conditions: discs functionalized 2 minutes at 37° C., S. mutans challenge 24 hours. How it is done: Streptococcus mutans bacteria (ATCC 700610) were cultured according to an ATCC protocol. Frozen stocks were streak plated on agar and incubated for 24 hours at 37° C. in atmosphere with 5% CO2. A single bacterial colony was used to inoculate 5 mL of Brain Heart Infusion (BHI) broth in a sterile 50 mL conical tube and incubated overnight in the same conditions. Following incubation, 1 mL of culture was added to 9 mL of fresh media and grown to mid-log phase with a final concentration of 10^5 CFU/mL.
Following the functionalization of titanium discs, they were transferred to a sterile well in a 24-well plate and 400 μL of S. mutans bacteria at a concentration of 10^3 CFU/mL was added to the wells containing the discs and incubated for 24 hours at 37° C. in atmosphere with 5% CO2. Following incubation, discs were imaged with a fluorescent microscope to visualize FTIC-labeled bifunctional peptides on the disc surface after bacterial challenge. The dead bacteria were stained with propidium iodide and imaged using a fluorescent microscope. Experiments were repeated in triplicate and images were recorded at 10× magnification.
The antimicrobial functional efficacy of TiBP-AMPA compared to TiBP-GL13K supported the design prediction. […] Representative fluorescent images and quantification of three replicate experiments are depicted in FIGS. 8A and 8B, respectively.

Experiment [5] can be described thus: Peptide film coverage on implant discs after S. mutans challenge. Conditions: S. mutans challenge for 24 hours, FITC-labeled peptide.
Source text: as §1
Streptococcus mutans bacteria (ATCC 700610) were cultured according to an ATCC protocol. Frozen stocks were streak plated on agar and incubated for 24 hours at 37° C. in atmosphere with 5% CO2. […]
Following the functionalization of titanium discs, they were transferred to a sterile well in a 24-well plate and 400 μL of S. mutans bacteria at a concentration of 10^3 CFU/mL was added to the wells containing the discs and incubated for 24 hours at 37° C. in atmosphere with 5% CO2. […] Experiments were repeated in triplicate and images were recorded at 10× magnification.
The binding and antimicrobial domain activities were evaluated by challenging the bifunctional peptide film applied to titanium implant discs with S. mutans bacteria for 24 hours. […]

Regarding “GKIIKLKASLKLL [GL13K, cationic amphipathic antimicrobial peptide domain]”, the MIC entry in experiment [1] was “low”.
Regarding “KWKLWKKIEKWGQGIGAVLKWLTTW [AMPA, cationic antimicrobial peptide domain]”, the MIC entry in experiment [1] is recorded as “low”.
“RPRENRGRERGLGSGGGGKIIKLKASLKLL [TiBP-GL13K, comparative bifunctional peptide: TiBP, GSGGG spacer, GL13K antimicrobial domain]”: in experiment [2], the “surface coverage in competition with BSA” value worked out at 73%. In experiment [3], the “surface coverage (initial binding)” value came out at 96%. Besides, the “dead bacteria coverage (PI staining)” value in experiment [4] turned out to be 10%. Moreover, the “surface coverage after bacterial challenge” value in experiment [5] came to 60%.
In the case of “RPRENRGRERGLGSGGGKWKLWKKIEKWGQGIGAVLKWLTTW [TiBP-AMPA]”, in experiment [2], the “surface coverage in competition with BSA” value worked out at 80%. For the same sequence, the “surface coverage (initial binding)” value in experiment [3] is listed as 99%. Also, in experiment [4], the “dead bacteria coverage (PI staining)” value was 46%. In experiment [5], the “surface coverage after bacterial challenge” value was found to be 84%.
